From US20240109836A1, “NON-HALL[…] ANALOGS FOR TREATMENT OF NEUROLOGICAL AND PSYCHIATRIC DISORDERS” (The Trustees of Columbia University in the City of New York, priority 2021, published 2024)

Columns and labels:
[1] = target: 5-HT2A (Homo sapiens, UniProt P28223); test: IP1 agonist functional assay; format: cell-based
[2] = Head twitch response assay; format: in vivo, Mice (C57bl/6J); settings: mice, 1, 3, 10, and 30 mg/kg s.c., vs positive control DOI
Experimental: FIG. 2. […] N=5 mice in each cohort. […] Drugs were administered s.c.
Mice (C57bl/6J, 8-15 weeks, 26-33 g) were weighed and moved to the testing room 30 minutes prior to experimentation. Mice were administered the experimental compound at a selected dose s.c. and then immediately moved to a new cage. Before beginning the test, mice were allowed to remain in this cage for a set amount of time ranging 0-10 min based on the compound. The head twitch assay was performed by a trained observer watching the mouse for a 10 min duration and recording the total number of head twitches observed.
DOI was tested at the doses of 1, 3, 10 and 30 mg/kg (s.c., 5 mice per dose) and testing began immediately after administration of the compound. Ariadne (32), (29) and (38) were tested at the doses of 1, 3, 10, and 30 mg/kg (s.c., 5 mice per dose) and there was a 10 min interval between treatment and testing.

Chain of 5-HT2A (P28223 whole entry): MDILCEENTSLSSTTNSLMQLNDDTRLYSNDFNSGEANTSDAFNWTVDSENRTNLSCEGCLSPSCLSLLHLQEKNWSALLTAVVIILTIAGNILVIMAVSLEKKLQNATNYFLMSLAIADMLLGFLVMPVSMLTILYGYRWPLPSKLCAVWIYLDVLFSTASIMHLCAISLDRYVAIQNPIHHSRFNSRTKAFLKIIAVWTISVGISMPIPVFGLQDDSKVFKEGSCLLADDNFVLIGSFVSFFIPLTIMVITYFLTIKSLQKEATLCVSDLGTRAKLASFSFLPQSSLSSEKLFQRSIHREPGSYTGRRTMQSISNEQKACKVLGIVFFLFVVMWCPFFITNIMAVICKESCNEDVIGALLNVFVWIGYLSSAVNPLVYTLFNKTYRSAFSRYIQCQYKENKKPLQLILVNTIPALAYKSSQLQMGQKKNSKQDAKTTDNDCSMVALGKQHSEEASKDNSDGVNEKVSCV

Q: For `CCC(N)Cc1cc(OC)c(COC)cc1OC` (centres unmarked) [compound 38, 1-(2,5-dimethoxy-4-(methoxymethyl)phenyl)butan-2-amine], which EC50 [1] is on record?
A: 3.8 µM

Q: What about the “psychedelic activity (number of head twitches in a 10-min period)” value [2] of the same compound?
A: lower psychedelic activity
